According to patent EP0085843A1, “Antimycosic agent” (BAYER AG, priority 1982, dated 1983):

How the values were obtained:
[1] = tested on: Trichophyton mentagrophytes; test: In-vivo activity (local) in experimental guinea pig trichophytosis; design: species or system Meerschweinchen; key to Wirkung (Infektionszeichen): +++++: sehr gute Wirkung = keine Infektionszeichen am 12.-15.Tag p.i.; ++++: gute Wirkung = geringe Rötung, vereinzelt Schuppen; +++: Wirkung = Rötung, Schuppung, ohne Haarausfall; ++: schwache Wirkung = Rötung, Schuppung, Haarausfall; +: Spur Wirkung = flächiger Haarausfall, entzündliche Hautreaktion; settings: for Wirkung (Infektionszeichen): 1x daily from day 3 p.i., 15%-ige Lösung in Dimethylsulfoxid : Glycerin = 1 : 4; for Wirkung: trichophytosis model
[2] = tested on: Candida; test: Antifungal in-vivo activity (oral) in mouse candidosis; design: species or system Mäuse vom Typ SPF-CF1; key to Wirkung (Ueberlebende am 6.Tag p.i.): +++++: = sehr gute Wirkung = 90 % Ueberlebende am 6.Tag p.i.; ++++: = gute Wirkung = 80 % Ueberlebende am 6.Tag p.i.; +++: = Wirkung = 60 % Ueberlebende am 6.Tag p.i.; ++: = schwache Wirkung = 40 % Ueberlebende am 6.Tag p.i.; +: = Spur Wirkung = unter 40% " " " "; k.W.: = keine Wirkung; settings: for Wirkung (Ueberlebende am 6.Tag p.i.): 50 - 100 mg/kg one hour before and seven hours after i.v. infection; for Wirkung compared with known compounds (A), (B), (C), (D): mouse candidosis
Protocol: Mäuse vom Typ SPF-CF1 wurden intravenös mit 1 - 2 x 10^6 logarithmisch wachsenden Candida-Zellen, die in physiologischer Kochsalzlösung suspendiert werden, infiziert. Eine Stunde vor und sieben Stunden nach der Infektion werden die Tiere mit jeweils 50 - 100 mg/kg Körpergewicht der Präparate oral behandelt.
Unbehandelte Tiere starben 3 bis 6 Tage post infektionem. Die Ueberlebensrate am 6.Tag post infektionem betrug bei unbehandelten Kontrolltieren etwa 5 %.

[3] = tested on: Dermatophyten, Schimmelpilze, Hefen; test: Antifungal in-vitro activity, serial dilution test, overall statement; type: cell-based
Protocol: Versuchsbeschreibung: • Die in-vitro-Prüfungen wurden im Reihenverdünnungstest mit Keiminokula von durchschnittlich 5 x 10^4 Keimen/ml Substrat durchgeführt. Als Nährmedium dienten • a) für Dermatophyten und Schimmelpilze: Sabouraud's milieu d'epreuve • b) für Hefen: • Fleischextrakt-Traubenzucker-Bouillon.
Die Bebrütungstemperatur betrug 20°C, die Bebrütungsdauer lag bei 24 bis 96 Stunden bei Hefen und 96 Stunden bei Dermatophyten und Schimmelpilzen.

COC(COc1ccc(Cl)cc1)(Cn1cncn1)C(C)(C)C (centres unmarked) [Beispiel 2]
Wirkung (Infektionszeichen) [1]: ++++ | Wirkung [1]: gute Wirkung | Wirkung (Ueberlebende am 6.Tag p.i.) [2]: ++++ (= gute Wirkung = 80 % Ueberlebende am 6.Tag p.i.) | Wirkung compared with known compounds (A), (B), (C), (D) [2]: bessere Wirkung

Cc1cc(Cl)ccc1OCC(O)(Cn1cncn1)C(C)(C)C (centres unmarked) [(C), reference compound]
Wirkung (Ueberlebende am 6.Tag p.i.) [2]: k.W.

COC(COc1ccc(Cl)cc1C)(Cn1cncn1)C(C)(C)C (centres unmarked) [Beispiel 1, 2-(4-Chlor-2-methyl-phenoxymethyl)-3,3-dimethyl-2-methoxy-1-(1,2,4-triazol-1-yl)-butan]
Wirkung (Infektionszeichen) [1]: ++++ | Wirkung [1]: gute Wirkung | antimykotische Wirkung compared with known compounds (A), (B), (C), (D) [3]: bessere antimykotische Wirkung | Wirkung (Ueberlebende am 6.Tag p.i.) [2]: +++ (= Wirkung = 60 % Ueberlebende am 6.Tag p.i.) | Wirkung compared with known compounds (A), (B), (C), (D) [2]: bessere Wirkung

Cc1ccc(OCC(O)(Cn2cncn2)C(C)(C)C)cc1 (centres unmarked) [(A), reference compound]
Wirkung (Ueberlebende am 6.Tag p.i.) [2]: k.W.

COC(CCc1ccc(Cl)cc1)(Cn1cncn1)C(C)(C)C (centres unmarked) [Beispiel 4]
Wirkung (Infektionszeichen) [1]: ++++ | Wirkung [1]: gute Wirkung | antimykotische Wirkung compared with known compounds (A), (B), (C), (D) [3]: bessere antimykotische Wirkung | Wirkung (Ueberlebende am 6.Tag p.i.) [2]: +++++ (= sehr gute Wirkung = 90 % Ueberlebende am 6.Tag p.i.) | Wirkung compared with known compounds (A), (B), (C), (D) [2]: bessere Wirkung

COC(COc1ccc(Cl)cc1Cl)(Cn1cncn1)C(C)(C)C (centres unmarked) [Beispiel 3]
Wirkung (Infektionszeichen) [1]: ++++ | Wirkung [1]: gute Wirkung | antimykotische Wirkung compared with known compounds (A), (B), (C), (D) [3]: bessere antimykotische Wirkung | Wirkung (Ueberlebende am 6.Tag p.i.) [2]: +++ (= Wirkung = 60 % Ueberlebende am 6.Tag p.i.) | Wirkung compared with known compounds (A), (B), (C), (D) [2]: bessere Wirkung

COC(CCc1ccc(F)cc1)(Cn1cncn1)C(C)(C)C (centres unmarked) [Beispiel 5]
Wirkung (Infektionszeichen) [1]: ++++ | Wirkung [1]: gute Wirkung | antimykotische Wirkung compared with known compounds (A), (B), (C), (D) [3]: bessere antimykotische Wirkung | Wirkung (Ueberlebende am 6.Tag p.i.) [2]: ++++ (= gute Wirkung = 80 % Ueberlebende am 6.Tag p.i.) | Wirkung compared with known compounds (A), (B), (C), (D) [2]: bessere Wirkung
